Results: patent US10278957B2, “Opioid agonist peptides and uses thereof” (Protagonist Therapeutics, Inc., priority 2017, dated 2019)
Square brackets hold non-standard residues; d marks the D form. Peptide text beside a SMILES is read from it. Dmt = Cc1cc(O)cc(C)c1C[C@H](N)C(=O)O; β3hF = N[C@H](CC(=O)O)Cc1ccccc1; Sar = CNCC(=O)O

Experiments:
[1] = SIF assay (stability in simulated intestinal fluid); format: in vitro ADME; conditions: for half-life at 20 μM: simulated intestinal fluid (SIF) with pancreatin, simulated intestinal fluid, pH 6.8, pancreatin, 37° C.
Procedure: SIF was prepared by adding 6.8 g of monobasic potassium phosphate and 10.0 g of pancreatin to 1.0 L of water. After dissolution, the pH was adjusted to 6.8 using NaOH. DMSO stocks (2 mM) were prepared for each of the opioid agonist peptides. Aliquots of the DMSO solutions were dosed into […], each containing 0.5 mL of SIF, which was pre-warmed to 37° C. The final opioid agonist peptide concentration was 20 μM. The vials were kept in a benchtop Thermomixer® for the duration of the experiment. At each timepoint (0, 5, 10, 20, 40, 60, or 360 minutes or 24 hours), 1.0 mL of acetonitrile containing 1% formic acid was added to one vial to terminate the reaction. Samples were stored at 4° C. until the end of the experiment. After the final timepoint was sampled, the tubes were mixed and then centrifuged at 3,000 rpm for 10 minutes. Aliquots of the supernatant were removed, diluted 1:1 into distilled water containing an internal standard, and analyzed by LCMS/MS. The percent of the opioid agonist peptide remaining at each timepoint was calculated based on the peak area response ratio of opioid agonist peptide to the internal standard. Time 0 was set to 100%, and all later timepoints were calculated relative to time 0. Half-lives were calculated by fitting to a first-order exponential decay equation using Graph pad.

[2] = molecular target: T1, δ-opioid receptor (DOR) (Homo sapiens, UniProt P41143); test: DOR agonist cAMP assay (HitHunter cAMP, forskolin-stimulated); format: cell-based
T1 construct: host or cells: cAMP Hunter CHO-K1 OPRD1 Gαi cell line
Method in brief: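 CHO-K1 Gαi cells expressing OPRM1 or OPRD1 were exposed 30 min at 37° C to 11-point threefold agonist dilutions, in duplicate, with 20 uM forskolin final. cAMP quantified by EFC chemiluminescent competitive immunoassay against cAMP standards. EC50 by four-parameter Hill nonlinear regression.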

[3] = SGF assay (stability in simulated gastric fluid); format: in vitro ADME; conditions: pig, simulated gastric fluid (SGF) with porcine pepsin, pH 2, pepsin, 37° C.
Procedure: SGF was prepared by adding 20 mg NaCl, 32 mg porcine pepsin (MP Biochemicals, catalog 02102599), and 70 μl HCl to 10 ml water (final pH=2). Aliquots of SGF (0.5 ml each) were pre-warmed at 37° C. To start the reaction, 1 μl of opioid agonist peptide stock solution (10 mM in DMSO) was added to 0.5 ml SGF and thoroughly mixed such that the final peptide concentration was 20 μM. The reactions were incubated at 37° C. with gentle shaking.
At each timepoint (0, 15, 30, 60 min) 50 µl aliquots were removed and added to 200 ul of acetonitrile containing 0.1% formic acid to quench the reaction. Samples were stored at 4° C. until the end of the experiment and centrifuged at 10,000 rpm for 5 minutes. Aliquots of the supernatant were removed, diluted 1:1 into distilled water containing internal standard, and analyzed by LCMS/MS. The percent of the opioid agonist peptide remaining at each timepoint was calculated based on the peak area response ratio of the opioid agonist peptide to the internal standard. Time 0 was set to 100%, and all later timepoints were calculated relative to time 0. Half-lives were calculated by fitting to a first-order exponential decay equation using GraphPad.

T1 sequence (P41143 whole entry): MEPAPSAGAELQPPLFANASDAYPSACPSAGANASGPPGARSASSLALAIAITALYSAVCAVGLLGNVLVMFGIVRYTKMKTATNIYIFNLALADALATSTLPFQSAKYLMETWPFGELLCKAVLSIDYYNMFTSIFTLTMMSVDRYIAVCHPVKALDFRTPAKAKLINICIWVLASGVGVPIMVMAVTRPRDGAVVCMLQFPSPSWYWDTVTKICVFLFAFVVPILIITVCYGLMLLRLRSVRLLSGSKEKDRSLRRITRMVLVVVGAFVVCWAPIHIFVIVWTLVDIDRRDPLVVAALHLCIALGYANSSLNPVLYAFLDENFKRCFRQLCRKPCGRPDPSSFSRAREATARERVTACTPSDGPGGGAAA

SMILES | SIF (min) ([1]; Table 4, SIF half-life) | EC50 [2] [nM] | half-life at 20 μM [1] [h] | half-life at 20 μM [3] [h]
Cc1cc(C(N)=O)cc(C)c1C[C@H](N)C(=O)N[C@H](C)C(=O)NCC(=O)N[C@H](CC(=O)N(C)CC(N)=O)Cc1ccccc1 [Seq. ID 70, H-Phe(2,6-dimethyl-4-CONH2)-a-G-bhF-Sar-NH2] | **** (for SIF half-life values, **** indicates >1290) | – | – | –
C[C@@H](NC(=O)C[C@@H](N)Cc1ccc(O)cc1)C(=O)NCC(=O)N[C@H](CC(=O)N(C)CC(N)=O)Cc1ccccc1 [compound 50] | – | > 200 | 6 to 24 | –
CN[C@@H](Cc1ccc(O)cc1)C(=O)N[C@H](C)C(=O)NCC(=O)N[C@H](CC(=O)N(C)CC(N)=O)Cc1ccccc1 [compound 51] | – | > 200 | 6 to 24 | –
C[C@@H](NC(=O)[C@@H](N)Cc1ccc(O)c(C(C)(C)C)c1)C(=O)NCC(=O)N[C@H](CC(=O)N(C)CC(N)=O)Cc1ccccc1 [compound 52] | – | > 200 | 6 to 24 | –
C[C@@H](NC(=O)[C@H](N)Cc1ccc(O)cc1)C(=O)NCC(=O)N[C@H](CC(=O)N(C)CC(N)=O)Cc1ccccc1 [compound 53] | – | > 200 | 6 to 24 | –
C[C@@H](NC(=O)[C@@H](N)CCc1ccc(O)cc1)C(=O)NCC(=O)N[C@H](CC(=O)N(C)CC(N)=O)Cc1ccccc1 [compound 54] | – | > 200 | 6 to 24 | –
C[C@@H](NC(=O)[C@@H](N)Cc1ccc(O)c(Cl)c1)C(=O)NCC(=O)N[C@H](CC(=O)N(C)CC(N)=O)Cc1ccccc1 [compound 55] | – | 10 to 50 | 6 to 24 | –
C[C@@H](NC(=O)[C@@H](N)Cc1cccc(O)c1)C(=O)NCC(=O)N[C@H](CC(=O)N(C)CC(N)=O)Cc1ccccc1 [compound 56] | – | > 200 | 6 to 24 | –
C[C@@H](NC(=O)[C@@H](N)Cc1ccc(O)c(F)c1)C(=O)NCC(=O)N[C@H](CC(=O)N(C)CC(N)=O)Cc1ccccc1 [compound 57] | – | 1 to 10 | 6 to 24 | > 24
C[C@@H](NC(=O)[C@@H](N)Cc1ccc(O)c(O)c1)C(=O)NCC(=O)N[C@H](CC(=O)N(C)CC(N)=O)Cc1ccccc1 [compound 58] | – | – | 6 to 24 | –
Cc1cc(O)cc(C)c1C[C@H](N)C(=O)N[C@H](C)C(=O)N[C@@H](C)C(=O)N[C@H](CC(=O)N(C)CC(N)=O)Cc1ccccc1 [compound 66] (H-[Dmt][dA]A[β3hF][Sar]-NH2) | – | – | > 24 | 0.167 to 6
Cc1cc(O)cc(C)c1C[C@H](N)C(=O)N[C@H](C)C(=O)NCCC(=O)N[C@H](CC(=O)N(C)CC(N)=O)Cc1ccccc1 [compound 73] | – | 50 to 200 | > 24 | 0.167 to 6
